Assay results reported in paper PMC12543186, “Discovery of C-12 dithiocarbamate andrographolide analogue as a novel antioxidant and α-glucosidase inhibitors: In vitro and in silico studies” (PLOS One, 2025).
Where two headings read alike, the source gives them in different places.

Experiments:
[1] = target: T1, α-glucosidase from Saccharomyces cerevisiae (Saccharomyces cerevisiae, UniProt P38158); assay: α-glucosidase inhibition activity (p-NPG substrate); format: biochemical; conditions: for α-glucosidase inhibition (%), Mean: 2000 μM
Description: An in vitro α-glucosidase inhibitory assay is commonly used to evaluate the inhibitory effects of various compounds on the enzyme α-glucosidase, which is involved in carbohydrate digestion. Inhibiting this enzyme results in slower glucose absorption, which can be beneficial for managing postprandial blood sugar levels in diabetic conditions. This assay was modified from the methods described by Yusuf et al.. The procedure involved mixing 25 μL of the sample, 150 μL of phosphate buffer saline (PBS) pH 7.4, and 75 μL of 10 mM p-NPG. The mixture was incubated at 37 °C for 10 min. Next, 50 μL of α-glucosidase enzyme from Saccharomyces cerevisiae at a concentration of 0.1 U/mL was added, then incubated at 37 °C for 10 min. To terminate the reaction, […] of 0.1 M sodium carbonate (Na2CO3) was added to the mixture. The absorbance was measured using a microplate reader. The percentage of α-glucosidase inhibition was calculated as follows:
α−glucosidase inhibition(%)=(1–{A−B/C−D})×100
Where A was the absorbance of the sample with α-glucosidase enzyme, B was the absorbance of the sample, C was the absorbance of vehicle with α-glucosidase enzyme, and D was the absorbance of the vehicle (blank).

[2] = DPPH radical scavenging activity; conditions: 500 μM
Description: The DPPH radical scavenging activity was conducted to thoroughly evaluate the antioxidant potential of andrographolide and its analogues. We modified the assay employing the Sekhon-Loodu and Rupasinghe methods. A DPPH solution was prepared in absolute ethanol, with a concentration of 200 μM. Next, 100 μL of DPPH solution was mixed with 100 μL of the sample in a 96-well plate. The mixture was then incubated for 30 minutes at room temperature. Following incubation, we measured the absorbance at 517 nm using a microplate reader. We tested the antioxidant properties of the compounds at a concentration of 500 μM to detect the weak-to-moderate antioxidants while addressing solubility limitations and minimizing assay artefacts, consistent with previous research. The DPPH radical scavenging activity was precisely expressed as a percentage of DPPH inhibition (% DPPH Inhibition). We selected candidates based on their higher inhibitory activity and prepared various concentrations of these candidates for testing. α-tocopherol, also known as vitamin E, was employed as a positive control. The % DPPH Inhibition was calculated as follows:
%DPPH Inhibition=(1–{A/B})×100
Where A was the absorbance of the DPPH with sample, and B was the absorbance of the DPPH with vehicle (blank).

[3] = Ferric reducing antioxidant power (FRAP) activity; conditions: 500 μM; third replicate column
Description: The FRAP activity assay was performed to assess the reducing power ability to reduce ferric ions (Fe^3+) to ferrous ions (Fe^2+), following the established method described by Sekhon-Loodu and Rupasinghe. The FRAP reagent was freshly prepared by combining 300 mM acetate buffer pH 3.6, 10 mM 2,4,6- Tri(2-pyridyl)-s-triazine (TPTZ) dissolved in 40 mM HCl, and 20 mM FeCl3 in a ratio of 10:1:1. Ferrous sulfate (FeSO4) was used as a standard, with ascorbic acid serving as a control. The assay was conducted in a 96-well plate by mixing 20 μL of the sample, standard, or positive control with 80 μL of the FRAP solution. The mixture was then incubated for 20 minutes at room temperature, after which we measured absorbance at 595 nm using a microplate reader. The results were expressed as FRAP value, reported as ascorbic acid equivalent in μM (AAE, μM), providing a definitive measure of reducing power.

[4] = target: T1, α-glucosidase from Saccharomyces cerevisiae; assay: Surface plasmon resonance, steady-state affinity; format: binding; conditions: SPR steady-state affinity model, 25 °C, immobilized yeast α-glucosidase; read-out: dissociation constant (KD)
Description: All experiments were conducted using a Biacore X100 instrument at 25 °C with a running buffer of 1X PBS-P+ (10 mM phosphate buffer pH 7.4, 2.7 mM KCl, 137 mM NaCl, 0.05% Tween 20) supplemented with 5% DMSO. Compounds were initially dissolved in DMSO to a final concentration of 14 mM. The stock solution was then diluted to 700 μM in 1.05X PBS-P+ to prepare a compound solution containing 1X PBS-P+ with 5% DMSO. This compound solution was utilized to prepare the required concentrations for injections into the Biacore system. α-glucosidase from Saccharomyces cerevisiae was immobilized onto a CM5 chip following standard amine coupling procedures: the CM5 chip, containing channel 1 and 2, was activated with an injection of NHS/EDC mixture with a contact time of 540 s at a flow rate of 10 µL/min. This was followed by multiple injections of α-glucosidase dissolved in 10 mM sodium acetate pH 4.0 (50 µg/mL) onto channel 2, also with a contact time of 540 s at a flow rate of 10 µL/min. Both channels were inactivated by an injection of 1M ethanolamine at a flow rate of 10 µL/min for 540 s. An immobilization level of 3300 RU of α-glucosidase was achieved.
Multi-cycle affinity studies were conducted with a 100 s association phase and a 60 s dissociation phase, using a flow rate of 30 µL/min. Compounds were injected onto the chip at increasing concentrations of 7, 21, 70, 210, and 490 μM. Binding measurements were taken after reference subtraction of channel 1 (no immobilized α-glucosidase) and after subtracting the results from a blank injection with zero analyte concentration. All data evaluation was performed with Biacore X100 evaluation software (version 2.0).

[5] = read-out: α-glucosidase inhibition (%), Mean, 31.2 μM
[6] = read-out: α-glucosidase inhibition (%), Mean, 62.5 μM
[7] = read-out: α-glucosidase inhibition (%), Mean, 125 μM
[8] = read-out: α-glucosidase inhibition (%), Mean, 250 μM
[9] = read-out: α-glucosidase inhibition (%), Mean, 500 μM
[10] = read-out: α-glucosidase inhibition (%), Mean, 1000 μM
[11] = read-out: α-glucosidase inhibition (%), Mean, 2000 μM
[12] = read-out: α-glucosidase inhibition (%), replicate 1, 31.2 μM, first replicate column
[13] = read-out: α-glucosidase inhibition (%), replicate 1, 62.5 μM, first replicate column
[14] = read-out: α-glucosidase inhibition (%), replicate 1, 125 μM, first replicate column
[15] = read-out: α-glucosidase inhibition (%), replicate 1, 250 μM, first replicate column
[16] = read-out: α-glucosidase inhibition (%), replicate 1, 500 μM, first replicate column
[17] = read-out: α-glucosidase inhibition (%), replicate 1, 1000 μM, first replicate column
[18] = read-out: α-glucosidase inhibition (%), replicate 1, 2000 μM, first replicate column
[19] = read-out: α-glucosidase inhibition (%), replicate 2, 31.2 μM, second replicate column
[20] = read-out: α-glucosidase inhibition (%), replicate 2, 62.5 μM, second replicate column
[21] = read-out: α-glucosidase inhibition (%), replicate 2, 125 μM, second replicate column
[22] = read-out: α-glucosidase inhibition (%), replicate 2, 250 μM, second replicate column
[23] = read-out: α-glucosidase inhibition (%), replicate 2, 500 μM, second replicate column
[24] = read-out: α-glucosidase inhibition (%), replicate 2, 1000 μM, second replicate column
[25] = read-out: α-glucosidase inhibition (%), replicate 2, 2000 μM, second replicate column
[26] = read-out: α-glucosidase inhibition (%), replicate 3, 31.2 μM, third replicate column
[27] = read-out: α-glucosidase inhibition (%), replicate 3, 62.5 μM, third replicate column
[28] = read-out: α-glucosidase inhibition (%), replicate 3, 125 μM, third replicate column
[29] = read-out: α-glucosidase inhibition (%), replicate 3, 250 μM, third replicate column
[30] = read-out: α-glucosidase inhibition (%), replicate 3, 500 μM, third replicate column
[31] = read-out: α-glucosidase inhibition (%), replicate 3, 1000 μM, third replicate column
[32] = read-out: α-glucosidase inhibition (%), replicate 3, 2000 μM, third replicate column

T1 sequence (P38158 whole entry): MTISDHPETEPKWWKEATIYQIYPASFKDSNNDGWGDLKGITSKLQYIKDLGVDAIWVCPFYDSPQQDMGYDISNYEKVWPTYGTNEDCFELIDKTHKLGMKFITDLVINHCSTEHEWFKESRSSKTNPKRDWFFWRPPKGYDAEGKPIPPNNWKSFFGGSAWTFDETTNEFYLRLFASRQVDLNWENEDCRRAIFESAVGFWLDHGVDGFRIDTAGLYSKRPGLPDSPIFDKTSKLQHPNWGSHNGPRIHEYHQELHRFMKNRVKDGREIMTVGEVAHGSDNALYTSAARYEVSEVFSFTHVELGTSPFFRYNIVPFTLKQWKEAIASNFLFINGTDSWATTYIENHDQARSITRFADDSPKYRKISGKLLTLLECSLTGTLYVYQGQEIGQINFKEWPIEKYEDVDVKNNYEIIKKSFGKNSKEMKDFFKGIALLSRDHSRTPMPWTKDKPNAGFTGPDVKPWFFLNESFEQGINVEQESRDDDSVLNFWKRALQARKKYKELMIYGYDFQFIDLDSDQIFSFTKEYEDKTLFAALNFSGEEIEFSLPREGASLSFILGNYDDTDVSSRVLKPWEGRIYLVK

Row | Structure (SMILES) | α-glucosidase inhibition (%), Mean [1] | inhibition at 31.2 µM [1, 5] | inhibition at 62.5 µM [1, 6] | inhibition at 125 µM [1, 7] | inhibition at 250 µM [1, 8] | inhibition at 500 µM [1, 9] | inhibition at 1000 µM [1, 10] | inhibition at 2000 µM [1, 11] | inhibition at 31.2 µM [1, 12] | inhibition at 62.5 µM [1, 13] | inhibition at 125 µM [1, 14] | inhibition at 250 µM [1, 15] | inhibition at 500 µM [1, 16] | inhibition at 1000 µM [1, 17] | inhibition at 2000 µM [1, 18] | inhibition at 31.2 µM [1, 19] | inhibition at 62.5 µM [1, 20] | inhibition at 125 µM [1, 21] | inhibition at 250 µM [1, 22] | inhibition at 500 µM [1, 23] | also measured
1 | C[C@H]1O[C@H](O[C@H]2[C@H](O)[C@@H](O)[C@@H](O[C@H]3[C@H](O)[C@@H](O)C(O)O[C@@H]3CO)O[C@@H]2CO)[C@H](O)[C@@H](O)[C@@H]1N[C@H]1C=C(CO)[C@@H](O)[C@H](O)[C@H]1O (some centres unmarked) [Acarbose, acarbose] | 38.3925% | 6.67% | 3.73% | 7.12% | 10.6% | 31.1% | 35.9% | 38.4% | 5.58% | 3.74% | 6.97% | 10.5% | 31.2% | 36% | 37.5% | 5.89% | 3.63% | 7.34% | 10.7% | 31.1% | inhibition at 1000 µM [1, 24]: 36.7%; inhibition at 2000 µM [1, 25]: 39.4%; inhibition at 31.2 µM [1, 26]: 8.54%; inhibition at 62.5 µM [1, 27]: 3.82%; inhibition at 125 µM [1, 28]: 7.06%; inhibition at 250 µM [1, 29]: 10.5%; inhibition at 500 µM [1, 30]: 31.1%; inhibition at 1000 µM [1, 31]: 34.8%; inhibition at 2000 µM [1, 32]: 38.3%
2 | C=C1CC[C@@H]2[C@](C)(CO)[C@H](O)CC[C@@]2(C)[C@@H]1C/C=C1/C(=O)OC[C@H]1O [Andrographolide] | 21.1432% | 0.0652% | -0.749% | 4.88% | 1.93% | 11.9% | 13.6% | 21.1% | -0.3% | 2.19% | 6.76% | -2.97% | 13.1% | 17.1% | 22.5% | 1.47% | 3.06% | 3.19% | 3.6% | 12% | IC50 ([1]; concentration range up to 2000 μM, read-out: IC50 (α-glucosidase inhibitory activity)): > 2000 µM; inhibition at 1000 µM [1, 24]: 13.5%; inhibition at 2000 µM [1, 25]: 21%; inhibition at 31.2 µM [1, 26]: -0.976%; inhibition at 62.5 µM [1, 27]: -7.49%; inhibition at 125 µM [1, 28]: 5.68%; inhibition at 250 µM [1, 29]: 5.16%; inhibition at 500 µM [1, 30]: 10.6%; inhibition at 1000 µM [1, 31]: 11%; inhibition at 2000 µM [1, 32]: 19.9%; % Inhibition (DPPH), replicate 1 ([2]; first replicate column): 17.9296%; % DPPH Inhibition, Mean ([2]; mean of n = 3): 14.4808%; % Inhibition (DPPH), replicate 2 ([2]; second replicate column): 11.6610%; % Inhibition (DPPH), replicate 3 ([2]; third replicate column): 13.8517%; FRAP, Ascorbic acid equivalent, replicate 3 [3]: -2.0327 AAE, μM; Kd [4]: 137 ± 85.1 µM
